The source of these data is publication PMC11350846, “Synthesis of Second-Generation Analogs of Temporin-SHa Peptide Having Broad-Spectrum Antibacterial and Anticancer Effects” (Antibiotics, 2024).

The subject of data set [1] is human cancer and normal/non-cancerous cells. Type of data set: cell-based. To be noted: cancer or normal cells, except breast cancer MCF-7 cells; read-out: IC50, cancer or normal cell proliferation. How it is done:
(§1) The antiproliferative activity of the peptides was evaluated, as previously described using human cancer cell lines (A549 (lung), A2780 (ovary), HepG-2 (liver), MCF-7 (breast), MiaPaCa-2 (pancreas), MNT-1 (skin), and PC-3 (prostate)) and normal human lung fibroblasts (IMR-90) or epithelial cells (BEAS-2B). The cells were cultured in DMEM supplemented with 10% FBS, 1% L-glutamine, and 1% antibiotics at 37 °C in a 5% CO2 incubator. For the antiproliferative assay, cells were seeded in 96-well plates at approximately 3000 cells/well. Twenty-four hours later, cells were treated with increasing concentrations of peptides (1:2 serial dilution from 100 µM to 0 µM) for 48 h. After treatment, the number of viable cells was determined using a resazurin-based assay, and the fluorescence intensity was measured with a microplate reader (Ex 530 nm/Em 590 nm). The IC50 values of the peptides (i.e., the concentrations causing 50% inhibition of cell proliferation) were determined using GraphPad® Prism 7 software. The experiments were performed in triplicate (n = 3). The cytotoxicity of the peptides was also evaluated using confluent/no-dividing cells, as previously described. Briefly, human cells were seeded onto 96-well plates at 20,000 cells/well. When they reached 80–90% confluence (after 24–48 h), cells were treated with escalating concentrations of peptides. After 48h incubation, cell viability was measured using a resazurin assay and CC50 (i.e., the concentrations causing 50% inhibition of cell viability) and determined using GraphPad® Prism 7 software. The experiments were performed in triplicate (n = 3).

The nature of data set [2]: Circular dichroism, secondary structure (Bestsel). Type of data set: physicochemical. Particulars: CD in 20 mM SDS. How it is done: Circular dichroism of temporin SHa, [G10a]-SHa and newly synthesised second-generation analogs of [G10a]-SHa in 20 mM SDS are shown in Figure 2. In lipidic environments mimicked by SDS, peptides adopt an alpha helical structure due to their amphipathic nature. This structural feature is important for their antimicrobial activity, allowing for their insertion into bacterial membranes. The hydrophobic region of the peptide interacts with the hydrophobic portion of the lipid while the hydrophilic region remains exposed to the aqueous environment. The percentage of alpha helix, as well as the percentage of other secondary structures, was determined from CD data using Bestsel software (https://bestsel.elte.hu/index.php, (accessed on 22 June 2024)) (Table 3). Temporin-SHa (1) adopted a 49.5% α-helical structure, while its first-generation analog [G10a]-SHa (2) acquired a 82.4% alpha helical structure. The 84.6%, 88.7%, 4.7%, and 53.8% alpha helical structures were acquired for second-generation analogs 3, 4, 5, and 6, respectively.
The far-ultraviolet CD spectra were obtained using a JASCO J-810 spectropolarimeter (Jasco, Tokyo, Japan). In addition to this, the quartz cuvette of 10 mm path length was used. The temperature was maintained at 22 °C, and the output of the instrument was calibrated using D-(+)-10-camphorsulfonic acid. The peptides, which were present at a concentration of 1.0 mg/mL, were dissolved completely in 20 mM SDS at a concentration of 15 µM [21]. The instrument was set to record wavelengths ranging from 190 to 260 nm with a bandwidth of 2 nm. Ten consecutive scans (accumulations) were recorded for each spectrum at a rate of 50 nm/min, and the baseline was acquired under the same conditions.

The subject of a further data set is human cancer cells. It counts as cell-based. Particulars: mean of all human cancer cells tested; read-out: IC50, mean over cancer cells. How it is done:
as §1

Where a SMILES comes first, the peptide text is derived from it. [ ]: non-standard residue; d: D form.

Turning to `CC[C@H](C)[C@H](NC(=O)CNC(=O)[C@H](CO)NC(=O)[C@H](CC(C)C)NC(=O)[C@@H](N)Cc1ccccc1)C(=O)N[C@H](C(=O)NCC(=O)N[C@@H](CCSC)C(=O)N[C@@H](CC(C)C)C(=O)NCC(=O)N[C@@H](CCCCN)C(=O)N[C@@H](CC(C)C)C(=O)N[C@@H](Cc1ccccc1)C(N)=O)C(C)C` [Temporin-SHa (1), H-Phe^1-Leu^2-Ser^3-Gly^4-IIe^5-Val^6-Gly^7-Met^8-Leu^9-Gly^10-Lys^11-Leu^12-Phe^13-NH2, reference compound] (H-FLSGIVGMLGKLF-NH2), in data set [1], the IC50 is more than 100 µM. Moreover, in data set [2], the Antiparallel was 0.00%, the “Helix (alpha helical structure)” value stood at 49.5%, the Others worked out at 49.80% and the Parallel amounted to 0.00%. The molecule further registered a Turn in data set [2] of 0.70%.

Consider `CC[C@H](C)[C@H](NC(=O)CNC(=O)[C@H](CO)NC(=O)[C@H](CC(C)C)NC(=O)[C@@H](N)Cc1ccccc1)C(=O)N[C@H](C(=O)NCC(=O)N[C@@H](CCSC)C(=O)N[C@@H](CC(C)C)C(=O)N[C@H](C)C(=O)N[C@@H](CCCCN)C(=O)N[C@@H](CC(C)C)C(=O)N[C@@H](Cc1ccccc1)C(N)=O)C(C)C` [[G10a]-SHa (2), H-Phe^1-Leu^2-Ser^3-Gly^4-IIe^5-Val^6-Gly^7-Met^8-Leu^9-D-Ala^10-Lys^11-Leu^12-Phe^13-NH2] (H-FLSGIVGML[dA]KLF-NH2), for which the IC50 with human cancer cells was 18.7 ± 9 µM. In addition, in data set [2], the Antiparallel worked out at 17.60%, the “Helix (alpha helical structure)” value is recorded as 82.4%, the Others stood at 0.00% and the Parallel amounted to 0.00%. The molecule further showed a Turn in data set [2] of 0.00%.
